Measurements taken from publication PMC4317577, “Synthetic Covalently Linked Dimeric Form of H2 Relaxin Retains Native RXFP1 Activity and Has Improved In Vitro Serum Stability” (BioMed Research International, 2015).

Experiments:
human RXFP2 = target: T1, human RXFP2 (Homo sapiens, UniProt Q8WXD0); experiment: cAMP reporter gene (pCRE β-galactosidase) assay in RXFP2 expressing HEK-293T cells; type: cell-based; conditions: HEK-293T cells expressing RXFP2, pCRE β-galactosidase reporter, 6 h at 37°C; at least three independent experiments in triplicate
T1 construct: expressed in transfected cells; host or cells: HEK-293T
T1 sequence (Q8WXD0 whole entry): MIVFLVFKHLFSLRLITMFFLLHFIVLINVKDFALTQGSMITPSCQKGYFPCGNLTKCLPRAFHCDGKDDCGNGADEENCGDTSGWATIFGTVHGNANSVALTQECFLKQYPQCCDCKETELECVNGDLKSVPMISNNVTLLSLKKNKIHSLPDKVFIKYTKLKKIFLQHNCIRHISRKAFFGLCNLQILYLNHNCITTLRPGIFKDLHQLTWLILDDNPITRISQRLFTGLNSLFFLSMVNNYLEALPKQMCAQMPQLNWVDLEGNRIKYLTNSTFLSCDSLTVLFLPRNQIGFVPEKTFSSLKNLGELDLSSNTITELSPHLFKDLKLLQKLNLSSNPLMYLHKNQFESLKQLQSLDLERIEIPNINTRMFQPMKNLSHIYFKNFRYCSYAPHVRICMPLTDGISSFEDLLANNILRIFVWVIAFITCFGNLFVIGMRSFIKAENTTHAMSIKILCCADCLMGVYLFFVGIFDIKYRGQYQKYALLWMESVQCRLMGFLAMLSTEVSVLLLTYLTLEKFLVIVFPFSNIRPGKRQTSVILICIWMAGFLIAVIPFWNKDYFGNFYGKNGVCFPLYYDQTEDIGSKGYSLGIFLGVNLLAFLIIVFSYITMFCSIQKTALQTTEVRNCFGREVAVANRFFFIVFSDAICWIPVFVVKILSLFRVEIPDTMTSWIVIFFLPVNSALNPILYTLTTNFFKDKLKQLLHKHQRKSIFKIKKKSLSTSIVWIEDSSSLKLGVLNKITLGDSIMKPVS
Description: The influence of cAMP signaling by synthetic analogues in HEK-293T cells expressing either human RXFP1 or RXFP2 receptors was assessed using cAMP reporter gene assay as described previously. Briefly, HEK-293T cotransfected with response element pCRE β-galactosidase reporter plasmid were plated out in Corning Cell BIND 96-well plate at 50 000 cells per well per 200 μL. 24 h later, cotransfected cells were treated with increasing concentrations of H2 relaxin analogues in parallel with native H2 relaxin or human INSL3. After 6 h incubation at 37°C, cell media were aspirated and cells were frozen at −80°C overnight. A β-galactosidase colorimetric assay measuring absorbance at 570 nm on Benchmark Plus microplate spectrophotometer (Bio-Rad, Gladesville, Australia) was then used to measure relative cAMP responses. Each concentration point was measured in triplicate and each experiment performed independently at least three times. Ligand-induced stimulation of cAMP was expressed as a percentage of the maximum H2 relaxin response for RXFP1 cells or human INSL3 for RXFP2 cells. GraphPad Prism 5 was used to analyze the cAMP activity assay which was expressed as the mean ± S.E.M. Statistical analysis was conducted using one-way ANOVA with Newman-Keuls post hoc analysis.

In vitro serum stability = type: in vitro ADME; conditions: 100% human serum; 100% male human serum, not heat inactivated, 37°C; 10.0 μL of 1.0 mg/mL peptide in 590 μL serum; samples 0-6 h, acetonitrile/0.1% TFA quench, RP-HPLC (C4) peak area; triplicate
Description: The stability of the synthetic analogue was measured against native H2 relaxin in human serum. The purchased serum was not heat inactivated in order to retain as much of its proteolytic enzymic activity as possible. The peptides tested were normalized to a final concentration of 1.0 mg/mL with deionized water, and 10.0 μL of peptides was added to 590 μL 100% human serum. After addition of peptide into the serum, 50 μL of samples was removed and quenched with 250 μL of ice-cold acetonitrile/0.1% TFA. The solution was then spun down with a benchtop centrifuge at 13,500 rpm (Eppendorf Centrifuge 5804R, Melbourne, Australia) for 15 mins at 4°C to pellet the larger, precipitated serum proteins. The remaining peptide/serum solution was placed immediately into 37°C incubator. Degradation of peptides was monitored with manual RP-HPLC injections of supernatant using a Phenomenex Aeris Widepore 3.6 μm C4 analytical column (pore size, 100 Å; particle size 4.6 × 250 mm), in a stabilized gradient mode with eluent A: 0.1% aq TFA and eluant B: 0.1% TFA in acetonitrile. Samples were taken at time points 0.5, 1.0, 1.5, 2.0, 2.5, 3, 4, 5, and 6 h. […] Nonspecific peptide degradation was measured by peptide degradation in serum at 0 h. […] GraphPad Prism 5 was used to analyze the peptide degradation in serum which was expressed as the mean ratio ± S.E.M. and Microsoft Excel was used to graph all data. […]

[1] = cited from earlier work
Description: Nearly 9 decades since its discovery, the pleotropic peptide H2 relaxin recently completed a successful Phase III clinical trial for the treatment of acute heart failure. Despite this important success, the short in vivo half-life of the peptide (10 mins) necessitates its continuous intravenous infusion for optimum activity. As the in vivo half-life of a peptide or protein is affected by both its degradation by enzymes and renal clearance, it can be improved by, for example, conjugation with large MW compounds such as PEG or by polymerization/aggregation ...

## CC[C@H](C)[C@@H]1NC(=O)[C@H](C)NC(=O)[C@H](CC(C)C)NC(=O)[C@H](CCC(N)=O)NC(=O)[C@H](C)NC(=O)[C@H](CCCNC(=N)N)NC(=O)[C@H](C(C)C)NC(=O)[C@H](CC(C)C)NC(=O)[C@H](CCC(=O)O)NC(=O)[C@H](CCCNC(=N)N)NC(=O)CNC(=O)[C@@H](NC(=O)[C@H](CC(C)C)NC(=O)[C@H](CCCCN)NC(=O)[C@@H](NC(=O)[C@@H](NC(=O)[C@H](CCC(=O)O)NC(=O)[C@H](CCC(=O)O)NC(=O)[C@H](CCSC)NC(=O)[C@H](Cc2c[nH]c3ccccc23)NC(=O)[C@H](CO)NC(=O)[C@H](CC(=O)O)NC(=O)[C@@H](N)Cc2cn(CCOCCOCCOCCOCCOCCOCCOCCn3cc(C[C@H](N)C(=O)N[C@@H](CC(=O)O)C(=O)N[C@@H](CO)C(=O)N[C@@H](Cc4c[nH]c5ccccc45)C(=O)N[C@@H](CCSC)C(=O)N[C@@H](CCC(=O)O)C(=O)N[C@@H](CCC(=O)O)C(=O)N[C@H](C(=O)N[C@H](C(=O)N[C@@H](CCCCN)C(=O)N[C@@H](CC(C)C)C(=O)N[C@H]4CSSC[C@@H]5NC(=O)[C@@H](NC(=O)[C@H](CCCCN)NC(=O)[C@H](CC(N)=O)NC(=O)[C@H](C)NC(=O)[C@H](CC(C)C)NC(=O)[C@H](C)NC(=O)[C@H](CO)NC(=O)[C@H](Cc6ccc(O)cc6)NC(=O)[C@H](CC(C)C)NC(=O)[C@@H]6CCC(=O)N6)CSSC[C@H](NC(=O)CNC(=O)[C@H](C(C)C)NC(=O)[C@H](Cc6c[nH]cn6)NC5=O)C(=O)N[C@@H]([C@@H](C)O)C(=O)N[C@@H](CCCCN)C(=O)N[C@@H](CCCNC(=N)N)C(=O)N[C@@H](CO)C(=O)N[C@@H](CC(C)C)C(=O)N[C@@H](C)C(=O)N[C@@H](CCCNC(=N)N)C(=O)N[C@@H](Cc5ccccc5)C(=O)N[C@H](C(N)=O)CSSC[C@@H](C(=O)NCC(=O)N[C@@H](CCSC)C(=O)N[C@@H](CO)C(=O)N[C@H](C(=O)N[C@@H](Cc5c[nH]c6ccccc56)C(=O)N[C@@H](CO)C(N)=O)[C@@H](C)O)NC(=O)[C@H]([C@@H](C)CC)NC(=O)[C@H](C)NC(=O)[C@H](CC(C)C)NC(=O)[C@H](CCC(N)=O)NC(=O)[C@H](C)NC(=O)[C@H](CCCNC(=N)N)NC(=O)[C@H](C(C)C)NC(=O)[C@H](CC(C)C)NC(=O)[C@H](CCC(=O)O)NC(=O)[C@H](CCCNC(=N)N)NC(=O)CNC4=O)[C@@H](C)CC)C(C)C)nn3)nn2)C(C)C)[C@@H](C)CC)CSSC[C@@H]2NC(=O)[C@@H](NC(=O)[C@H](CCCCN)NC(=O)[C@H](CC(N)=O)NC(=O)[C@H](C)NC(=O)[C@H](CC(C)C)NC(=O)[C@H](C)NC(=O)[C@H](CO)NC(=O)[C@H](Cc3ccc(O)cc3)NC(=O)[C@H](CC(C)C)NC(=O)[C@@H]3CCC(=O)N3)CSSC[C@H](NC(=O)CNC(=O)[C@H](C(C)C)NC(=O)[C@H](Cc3c[nH]cn3)NC2=O)C(=O)N[C@@H]([C@@H](C)O)C(=O)N[C@@H](CCCCN)C(=O)N[C@@H](CCCNC(=N)N)C(=O)N[C@@H](CO)C(=O)N[C@@H](CC(C)C)C(=O)N[C@@H](C)C(=O)N[C@@H](CCCNC(=N)N)C(=O)N[C@@H](Cc2ccccc2)C(=O)N[C@H](C(N)=O)CSSC[C@@H](C(=O)NCC(=O)N[C@@H](CCSC)C(=O)N[C@@H](CO)C(=O)N[C@H](C(=O)N[C@@H](Cc2c[nH]c3ccccc23)C(=O)N[C@@H](CO)C(N)=O)[C@@H](C)O)NC1=O [H2 (PEG)7 H2 dimer]
Human RXFP2
  cAMP activation at RXFP2 compared with H2 relaxin: significantly weaker activation propensity
In vitro serum stability
  half-life at 16.7 µg/mL: 2.52 h

## dimeric erythropoietin: dimeric erythropoietin formed by chemical crosslinking of the monomer
[1]
  activity in vivo relative to monomer: 26 fold
  plasma half-life in rabbits: more than 24 h

## erythropoietin monomer: erythropoietin monomer
[1]
  plasma half-life in rabbits: 4 h
